# Measured values taken from patent US9492368B2, “External preparation for skin” (HAYASHIBARA CO., LTD., priority 2011, dated 2016).
# Assays:
# [1] = system: keratinocyte growth factor (KGF); assay: Expression of keratinocyte growth factor in NHDF cells (real-time PCR); assay type: cell-based, human; details: four hours, control = 1.0
# Text: The confirmation that glucosyladenosines have an action of enhancing the differentiation of keratinocytes in Experiments 5 and 7 led to an examination on keratinocyte proliferation. The effects of 5′- and […] on the expression of keratinocyte growth factor (KGF) in normal human dermal fibroblasts (NHDF) were compared. […] After the culture, the supernatant in each well was removed and added with 5′-glucosyladenosine obtained by the method in Experiment 1-2 or 3′-glucosyladenosine obtained by the method in Experiment 2, which were respectively diluted with a DMEM medium supplemented with 1 v/v % FCS to give respective concentrations of 0.15 mM and 1.5 mM. A DMEM medium supplemented with 1 v/v % FCS but with no glucosyladenosines was used as a control. The cells were cultured at 37° C. for four hours under a 5 v/v % CO2 condition, washed twice with PBS(−) after removing the culture supernatants in each well by aspiration, and fed to an RNA extraction.
# “QIA shledder+RNeasy Mini Kit”, a product name of a commercialized RNA extraction kit, produced by GIAGEN Benelux B.V., Netherlands, was used to extract the total RNAs. The handlings followed the operating instructions attached to the kit. Using “Super Script VILO cDNA Synthesis Kit”, a product name of a cDNA synthesis kit, commercialized by Invitrogen Corporation, CA, USA, an RT reaction was conducted under the conditions of treating a mixture of 10.5 μl of RNA, three microliters of 5×VILO reaction mix, 1.5 μl of 10× enzyme mix (15 μl in total) at 25° C. for 10 min, 42° C. for 60 min, and then 85° C. for five minutes.
# Using “LightCycler 480 SYBR Green I Master”, a product name of Roche Diagnostics K.K., Tokyo, Japan, a real-time PCR reaction was conducted by mixing 1.8 μl of water, 6.0 μl of master mix, 0.6 μl of primer L (10 μM), 0.6 μl of primer R (10 μM), and 3.0 μl of template (12.0 μl in total), and treated with 45 cycles of a successive incubation cycle at 95° C. for 10 sec, 60° C. for 10 sec, and 72° C. for 15 sec). The KGF expression level in each sample was calculated from a standard curve and calibrated with the expression level of an internal standard (18s rRNA). Relative value for each sample was determined, when the expression level of the control was regarded as 1.0, and evaluated. The primers used were of Table 9.
# [2] = system: three-dimensional skin model (EPI-200 Kit); details: human, 24 h, 0.1 %
# Procedure: “EPI Assay Medium”, a product name of EPI100 assay medium commercialized by Kurabo Industries Ltd., Okayama, Japan, was added to “12-WELL MULTI-MICROPLATE”, a product name of 12-well plate commercialized by Becton, Dickinson and Company, NJ, USA, in a volume of 0.33 ml/well; and “EPI-200 Kit”, a product name of a three-dimensional skin model cup, commercialized by Kanebo Cosmetics Inc., Tokyo, Japan, was transferred to each well. […] 5′-Glucosyladenosine prepared by the method in Experiment 1-2,3′-glucosyladenosine prepared by the method in Experiment 2, or adenosine was dissolved in 30% ethanol to give a final concentration of 0.1%, and 0.1 ml of each of the resulting solutions was added to each of the skin model cup. After incubating at 37° C. for 24 hours in a 5% CO2 condition, sample solutions (media in wells) were collected, subjected to ultrafiltration with “[sequence] 0.5 BIOMAX-5 MEMBRANE”, a product name of membrane commercialized by Nihon Millipore K.K., Tokyo, Japan, and diluted with the mobile phase. The diluent was subjected to HPLC under the following conditions and determined for the contents of 5′- and 3′-glucosyladenosines with an alternatively prepared standard curve.
# <Conditions for HPLC Analysis>
# Apparatus: an HPLC Pump, MODEL 510; a pump controller, MODEL 680; an autoinjector, MODEL 712; a detector, MODEL 2487; a data processing (quantity calculation), EMPOWER 2 SOFTWARRE, commercialized by Nihon Millipore K.K., Tokyo, Japan;
# Column: “YMC-PACK ODS AQ-303”, a product name of an ODS column, ø4.6 mm×250 mm, commercialized by YMC Co., Ltd., Kyoto, Japan;
# Mobile phase: {20 mM Acetic acid-ammonium acetate buffer (pH 3.5)}/(methanol)=92/8 (v/v);
# Detection wavelength: 260 nm;
# Injection volume: 10 μl; and
# Column temperature: 40° C.
compound,measurement,setting,value
"Nc1ncnc2c1ncn2[C@@H]1O[C@H](CO)[C@@H](O[C@H]2O[C@H](CO)[C@@H](O)[C@H](O)[C@H]2O)[C@H]1O [3′-Glucosyladenosine, α-D-glucopyranosyl-(1→3′)-adenosine]",Relative expression level of KGF,[1]; 0.15 mM,2.3
same,Relative expression level of KGF,[1]; 1.5 mM,2.7
"Nc1ncnc2c1ncn2[C@@H]1O[C@H](CO)[C@@H](O)[C@H]1O [Adenosine, reference compound]",Composition of permeated solution: adenosine,[2],0%
same,Composition of permeated solution: hypoxanthine,[2],77%
same,Composition of permeated solution: inosine,[2],23%
same,Concentration of adenosine in permeated solution,[2],0 nM
same,Concentration of hypoxanthine in permeated solution,[2],187 µM
same,Concentration of inosine in permeated solution,[2],55 µM
"Nc1ncnc2c1ncn2[C@@H]1O[C@H](CO[C@H]2O[C@H](CO)[C@@H](O)[C@H](O)[C@H]2O)[C@@H](O)[C@H]1O [5′-Glucosyladenosine, α-D-glucopyranosyl-(1→5′)-adenosine]",Relative expression level of KGF,[1]; 0.15 mM,0.9
same,Relative expression level of KGF,[1]; 1.5 mM,1.4
